Data from patent publication US12139487B2, “Compounds and uses thereof” (Foghorn Therapeutics Inc., priority 2022, dated 2024).

Legend:
BRM = target: T1, BRM (Homo sapiens, UniProt P51531); test: ATPase catalytic activity assay (ADP-Glo), BRM; format: biochemical; conditions: Table 10; for Ratio (BRG1 IC50 (μM) divided by BRM IC50 (μM)): ATPase assay, selectivity BRG1/BRM; for IC50: ATPase catalytic activity assay (ADP-Glo)
T1 construct: made in house; host or cells: High Five insect cells
Procedure, shortened: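 ADP-Glo luminescence measures ADP produced by BRM ATPase (30 nM) during 1 h at room temperature. ATP is 400 μM, with 20 nM salmon sperm DNA as cofactor. Buffer: 20 mM Tris pH 8, 20 mM MgCl2, 50 mM NaCl, 0.1% Tween-20, 1 mM DTT.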

BRG-1 = target: T2, BRG-1 (Homo sapiens, UniProt P51532); test: ATPase catalytic activity assay (ADP-Glo), BRG-1; format: biochemical; conditions: Table 10, read-out: BRG1 IC50
T2 construct: made in house; host or cells: High Five insect cells
T2 sequence (P51532 whole entry): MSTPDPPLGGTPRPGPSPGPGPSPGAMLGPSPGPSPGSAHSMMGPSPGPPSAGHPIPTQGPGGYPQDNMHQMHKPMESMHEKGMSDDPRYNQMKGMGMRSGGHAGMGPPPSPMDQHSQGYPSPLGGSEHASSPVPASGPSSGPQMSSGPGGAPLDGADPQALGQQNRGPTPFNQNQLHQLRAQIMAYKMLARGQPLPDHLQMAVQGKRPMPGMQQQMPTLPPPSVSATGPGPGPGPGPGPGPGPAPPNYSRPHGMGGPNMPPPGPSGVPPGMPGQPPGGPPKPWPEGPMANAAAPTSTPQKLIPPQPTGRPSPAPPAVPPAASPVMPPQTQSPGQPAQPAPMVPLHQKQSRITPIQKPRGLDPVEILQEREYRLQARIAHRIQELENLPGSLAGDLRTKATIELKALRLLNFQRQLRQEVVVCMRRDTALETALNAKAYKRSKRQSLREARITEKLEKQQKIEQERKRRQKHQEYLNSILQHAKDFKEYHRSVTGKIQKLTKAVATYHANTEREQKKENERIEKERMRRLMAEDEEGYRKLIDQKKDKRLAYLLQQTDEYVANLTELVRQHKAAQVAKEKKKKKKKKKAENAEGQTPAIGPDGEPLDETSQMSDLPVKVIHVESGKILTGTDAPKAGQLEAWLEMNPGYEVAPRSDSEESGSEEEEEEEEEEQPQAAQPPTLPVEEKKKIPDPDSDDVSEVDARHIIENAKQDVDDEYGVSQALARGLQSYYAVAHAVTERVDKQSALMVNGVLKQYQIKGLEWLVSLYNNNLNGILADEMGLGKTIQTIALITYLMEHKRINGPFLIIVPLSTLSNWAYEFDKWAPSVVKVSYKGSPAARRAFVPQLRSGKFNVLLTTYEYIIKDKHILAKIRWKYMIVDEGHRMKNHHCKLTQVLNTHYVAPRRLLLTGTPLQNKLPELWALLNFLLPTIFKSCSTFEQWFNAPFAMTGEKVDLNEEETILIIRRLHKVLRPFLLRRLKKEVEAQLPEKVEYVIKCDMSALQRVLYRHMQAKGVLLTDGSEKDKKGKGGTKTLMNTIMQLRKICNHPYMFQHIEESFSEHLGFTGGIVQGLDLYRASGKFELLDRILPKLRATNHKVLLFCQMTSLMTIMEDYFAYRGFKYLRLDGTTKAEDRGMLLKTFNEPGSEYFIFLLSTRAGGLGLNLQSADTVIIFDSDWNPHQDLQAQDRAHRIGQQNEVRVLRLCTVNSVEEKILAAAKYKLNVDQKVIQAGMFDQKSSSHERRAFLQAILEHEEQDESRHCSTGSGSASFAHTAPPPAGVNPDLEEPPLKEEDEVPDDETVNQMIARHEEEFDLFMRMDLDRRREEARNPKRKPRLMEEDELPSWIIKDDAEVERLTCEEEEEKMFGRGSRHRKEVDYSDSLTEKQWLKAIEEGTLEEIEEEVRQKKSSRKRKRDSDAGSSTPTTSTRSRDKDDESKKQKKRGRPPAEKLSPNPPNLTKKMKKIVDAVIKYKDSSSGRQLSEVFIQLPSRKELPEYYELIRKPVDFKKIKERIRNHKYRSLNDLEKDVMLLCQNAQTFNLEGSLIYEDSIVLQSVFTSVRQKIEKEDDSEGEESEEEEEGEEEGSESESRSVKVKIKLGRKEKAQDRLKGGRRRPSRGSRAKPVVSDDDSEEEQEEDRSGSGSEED
Procedure, shortened: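 Luminescence read-out: ADP formed by BRG-1 ATPase is converted to ATP and detected by luciferase. Residual ATP is first removed with ADP-Glo Reagent for 40 min at RT; detection reagent is then incubated 60 min at RT before reading.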

T1 sequence (P51531 whole entry): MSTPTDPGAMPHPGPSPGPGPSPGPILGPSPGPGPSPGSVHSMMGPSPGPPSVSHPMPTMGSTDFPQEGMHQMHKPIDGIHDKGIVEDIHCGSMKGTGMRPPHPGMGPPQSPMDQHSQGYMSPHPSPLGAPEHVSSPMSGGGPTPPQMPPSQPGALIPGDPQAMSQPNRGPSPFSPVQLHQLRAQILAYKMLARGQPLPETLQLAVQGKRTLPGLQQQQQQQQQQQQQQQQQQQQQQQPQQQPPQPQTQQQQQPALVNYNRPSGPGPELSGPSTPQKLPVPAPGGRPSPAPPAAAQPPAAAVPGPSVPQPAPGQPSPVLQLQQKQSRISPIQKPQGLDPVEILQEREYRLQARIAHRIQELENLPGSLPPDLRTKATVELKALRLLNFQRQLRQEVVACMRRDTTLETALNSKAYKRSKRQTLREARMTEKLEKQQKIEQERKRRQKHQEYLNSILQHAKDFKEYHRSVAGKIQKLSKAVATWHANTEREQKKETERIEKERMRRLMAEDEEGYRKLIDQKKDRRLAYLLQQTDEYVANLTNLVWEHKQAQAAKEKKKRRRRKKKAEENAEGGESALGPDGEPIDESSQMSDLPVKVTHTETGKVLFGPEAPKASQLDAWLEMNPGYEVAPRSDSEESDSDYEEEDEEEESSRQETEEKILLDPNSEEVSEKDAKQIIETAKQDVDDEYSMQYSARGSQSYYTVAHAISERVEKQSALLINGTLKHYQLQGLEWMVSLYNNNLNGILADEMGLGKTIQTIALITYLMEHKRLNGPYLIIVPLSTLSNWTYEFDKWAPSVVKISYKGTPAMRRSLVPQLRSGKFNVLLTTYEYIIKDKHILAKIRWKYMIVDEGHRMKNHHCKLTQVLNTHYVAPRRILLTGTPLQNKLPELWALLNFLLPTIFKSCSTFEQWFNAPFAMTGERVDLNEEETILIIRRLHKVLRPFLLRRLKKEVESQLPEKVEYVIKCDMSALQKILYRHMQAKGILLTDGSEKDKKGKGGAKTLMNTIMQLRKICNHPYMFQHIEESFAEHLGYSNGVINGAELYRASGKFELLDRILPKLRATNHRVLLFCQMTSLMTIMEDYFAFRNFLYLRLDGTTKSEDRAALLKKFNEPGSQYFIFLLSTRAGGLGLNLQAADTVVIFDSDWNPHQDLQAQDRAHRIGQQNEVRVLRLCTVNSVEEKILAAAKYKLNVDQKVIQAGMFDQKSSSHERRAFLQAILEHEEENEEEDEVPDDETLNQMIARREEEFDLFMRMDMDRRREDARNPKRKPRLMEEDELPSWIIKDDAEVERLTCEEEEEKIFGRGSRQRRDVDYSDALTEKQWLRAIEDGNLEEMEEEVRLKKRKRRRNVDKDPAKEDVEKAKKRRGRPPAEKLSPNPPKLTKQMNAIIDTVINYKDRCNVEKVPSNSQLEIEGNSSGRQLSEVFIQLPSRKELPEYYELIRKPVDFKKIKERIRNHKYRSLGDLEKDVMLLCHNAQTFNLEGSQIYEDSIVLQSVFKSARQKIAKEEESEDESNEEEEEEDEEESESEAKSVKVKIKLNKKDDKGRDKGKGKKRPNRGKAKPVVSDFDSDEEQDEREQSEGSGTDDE

| Ratio (BRG1 IC50 (μM) divided by BRM IC50 (μM)) (BRM) | IC50 (BRM) [nM] | IC50 (BRG-1) [nM] | SMILES |
| --- | --- | --- | --- |
| 16.18 | 5.7 | 102 | [2H]C1([2H])Oc2c(F)cc(C(=O)NCc3cc4nc(-c5ccc(OC(F)F)c(C6CC6)n5)ccc4cn3)cc2S(=O)(=O)[C@@]([2H])(F)C1([2H])[2H] [Compound 186] |
| 22.86 | 3.4 | 86.4 | O=C(NCc1cc2nc(N3CCOc4ccc(C5CC5)nc43)ccc2cn1)c1ccc2c(c1)S(=O)(=O)[C@@H](F)CCO2 [Compound 96] |
| 17.27 | 9.6 | 187 | O=C(NCc1cc2nc(-c3ccnc(C45CC(C4)C5)n3)ccc2cn1)c1cc(F)c2c(c1)S(=O)(=O)[C@@H](F)COC2 [Compound 290] |
| 21.33 | 3.2 | 88.9 | O=C(NCc1cc2nc(N3CCOc4ccc([C@H]5C[C@H]5F)nc43)ccc2cn1)c1cc(F)c2c(c1)S(=O)(=O)[C@@H](F)COC2 [Compound 88] |
| 12.89 | 5.7 | 89.9 | O=C(NCc1cc2nc(N3CCOc4cc(N5CC[C@H](F)C5)cnc43)ccc2cn1)c1cc(F)c2c(c1)S(=O)(=O)[C@@H](F)CCO2 [Compound 183] |
| 11.58 | 9.9 | 114 | CN(C)c1ccnc2c1OCCN2c1ccc2cnc(CNC(=O)c3cc(F)c4c(c3)S(=O)(=O)[C@@H](F)CCO4)cc2n1 [Compound 296] |
| 18.65 | 1.7 | 31.1 | CO[C@H](C)COc1ccc2c(c1)N(c1ccc3cnc(CNC(=O)c4cc(F)c5c(c4)S(=O)(=O)[C@@H](F)CCO5)cc3n1)CCO2 [Compound 24] |
| 31.77 | 3.5 | 123 | COc1nc([C@H](F)CF)ccc1-c1ccc2cnc(CNC(=O)c3cc(F)c4c(c3)S(=O)(=O)[C@@H](F)CCO4)cc2n1 [Compound 98] |
| 20.37 | 3.1 | 69.9 | O=C(NCc1cc2nc(-c3ccc(OC(F)F)c(C4CC4)n3)ccc2cn1)c1cc(F)c2c(c1)S(=O)(=O)[C@@H](F)COC2 [Compound 85] |
| 24.03 | 4.1 | 98.3 | Cc1ccc(-c2ccc3cnc(CNC(=O)c4cc(F)c5c(c4)S(=O)(=O)[C@@H](F)CCO5)cc3n2)c(OC(F)F)n1 [Compound 120] |
| 16.19 | 5.7 | 83.9 | O=C(NCc1cc2nc(N3CCOc4cc(N5CC[C@@H](F)C5)cnc43)ccc2cn1)c1cc(F)c2c(c1)S(=O)(=O)[C@@H](F)CCO2 [Compound 182] |
| 19.49 | 8.5 | 166 | O=C(NCc1cc2nc(N3CCCc4c(OC5CC5)ncc(F)c43)ccc2cn1)c1cc(F)c2c(c1)S(=O)(=O)[C@@H](F)CCO2 [Compound 262] |
| 19.36 | 3.1 | 49.6 | Cc1cnc2c(c1)OCCN2c1ccc2cnc(CNC(=O)c3ccc4c(c3)S(=O)(=O)[C@@H](F)CCO4)cc2n1 [Compound 83] |
| 17.70 | 3.2 | 51.2 | O=C(NCc1cc2nc(N3CCOc4ccc(N5CC[C@@H](F)C5)nc43)ccc2cn1)c1cc(F)c2c(c1)S(=O)(=O)[C@@H](F)CCO2 [Compound 86] |
| 14.02 | 9.1 | 128 | COCC1(c2cccc(-c3ccc4cnc(CNC(=O)c5cc(F)c6c(c5)S(=O)(=O)[C@@H](F)CCO6)cc4n3)n2)CC1 [Compound 275] |
| 21.18 | 6.5 | 148 | O=C(NCc1cc2nc(N3CCOc4cc(C5CC5)cnc43)ccc2cn1)c1cc(Cl)c2c(c1)S(=O)(=O)[C@@H](F)CCO2 [Compound 216] |
